PubChem BioAssay (NCI)
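Briefly, cells in 96-well plates were exposed to five compound concentrations for 48 h, and endpoints were estimated by linear interpolation. Abbreviation: GI50, concentration required for 50% inhibition of growth. TGI: concentration producing complete growth inhibition.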

Experiments:
Experiment in all cases: inhibition of tumour cell growth, NCI panel, 48 h
NCI-H460 lung = tested on: NCI-H460 lung
HOP-92 NSCLC = tested on: HOP-92 NSCLC
HCT-15 colon = tested on: HCT-15 colon
ACHN renal = tested on: ACHN renal
786-0 renal = tested on: 786-0 renal
NCI-H522 lung = tested on: NCI-H522 lung
IGROV1 ovarian = tested on: IGROV1 ovarian
LOX IMVI melanoma = tested on: LOX IMVI melanoma
COLO 205 colon = tested on: COLO 205 colon
SN12C renal = tested on: SN12C renal
NCI-H226 lung = tested on: NCI-H226 lung
SK-MEL-5 melanoma = tested on: SK-MEL-5 melanoma
A549 NSCLC = tested on: A549 NSCLC
UACC-62 melanoma = tested on: UACC-62 melanoma
UACC-257 melanoma = tested on: UACC-257 melanoma
SNB-19 CNS = tested on: SNB-19 CNS
KM12 colon = tested on: KM12 colon
RPMI-8226 leukemia = tested on: RPMI-8226 leukemia
SW-620 colon = tested on: SW-620 colon
M14 melanoma = tested on: M14 melanoma
MCF7 breast = tested on: MCF7 breast
HCT-116 colon = tested on: HCT-116 colon
MDA-MB-231 breast = tested on: MDA-MB-231 breast
OVCAR-8 ovarian = tested on: OVCAR-8 ovarian
TK-10 renal = tested on: TK-10 renal
A498 renal = tested on: A498 renal
MDA-MB-435 = tested on: MDA-MB-435
CCRF-CEM leukemia = tested on: CCRF-CEM leukemia
HS 578T breast = tested on: HS 578T breast
CAKI-1 renal = tested on: CAKI-1 renal

In the case of `c1ccc(C(=C(c2ccc(OCCN3CCCCC3)cc2)c2ccc(OCCN3CCCCC3)cc2)C2CCCC2)cc1`, the GI50 (NCI-H460 lung) is reported as 2.82 µM, the TGI (NCI-H460 lung) is reported as 5.41 µM and the GI50 (HOP-92 NSCLC) is reported as 2.57 µM. The TGI (HOP-92 NSCLC) was 5.85 µM, the GI50 (HCT-15 colon) was > 18 µM and the TGI (HCT-15 colon) was > 18 µM. The GI50 (ACHN renal) was > 18 µM, the TGI (ACHN renal) was > 18 µM and the GI50 (786-0 renal) was 5.54 µM. The TGI (786-0 renal) was > 18 µM, the GI50 (NCI-H522 lung) was 2.61 µM and the TGI (NCI-H522 lung) was 5.9 µM. For the same molecule, the GI50 (IGROV1 ovarian) was 2.98 µM, the TGI (IGROV1 ovarian) was 5.65 µM and the GI50 (LOX IMVI melanoma) was 2.94 µM. It also gave a TGI (LOX IMVI melanoma) of 5.43 µM, a GI50 (COLO 205 colon) of 3.24 µM and a TGI (COLO 205 colon) of 6.71 µM. For the same molecule, the GI50 (SN12C renal) was 4.08 µM, the TGI (SN12C renal) was 11.8 µM and the GI50 (NCI-H226 lung) was 3.32 µM. It also gave a TGI (NCI-H226 lung) of 13.3 µM, a GI50 (SK-MEL-5 melanoma) of 2.73 µM and a TGI (SK-MEL-5 melanoma) of 5.23 µM. The GI50 (A549 NSCLC) was 3.29 µM, the TGI (A549 NSCLC) was 7.96 µM and the GI50 (UACC-62 melanoma) was 2.9 µM. The TGI (UACC-62 melanoma) was 5.35 µM, the GI50 (UACC-257 melanoma) was 4.11 µM and the TGI (UACC-257 melanoma) was 12 µM. For the same molecule, the GI50 (SNB-19 CNS) was 4.39 µM, the TGI (SNB-19 CNS) was 14.6 µM and the GI50 (KM12 colon) was 3.45 µM. The TGI (KM12 colon) was 6.48 µM, the GI50 (RPMI-8226 leukemia) was 3.44 µM and the TGI (RPMI-8226 leukemia) was 8.24 µM. For the same molecule, the GI50 (SW-620 colon) was 2.76 µM, the TGI (SW-620 colon) was 5.35 µM and the GI50 (M14 melanoma) was 3.43 µM. The TGI (M14 melanoma) was 8.04 µM, the GI50 (MCF7 breast) was 1.93 µM and the TGI (MCF7 breast) was 4.52 µM. The GI50 (HCT-116 colon) was 3.48 µM, the TGI (HCT-116 colon) was 6.82 µM and the GI50 (MDA-MB-231 breast) was 2.94 µM. The TGI (MDA-MB-231 breast) was 6.01 µM, the GI50 (OVCAR-8 ovarian) was 6.93 µM and the TGI (OVCAR-8 ovarian) was > 18 µM. The GI50 (TK-10 renal) was 8.11 µM, the TGI (TK-10 renal) was > 18 µM and the GI50 (A498 renal) was > 18 µM. The TGI (A498 renal) was > 18 µM, the GI50 (MDA-MB-435) was 2.59 µM and the TGI (MDA-MB-435) was 5.37 µM. It also gave a GI50 (CCRF-CEM leukemia) of 3 µM, a TGI (CCRF-CEM leukemia) of 6.55 µM and a GI50 (HS 578T breast) of 3.76 µM. For the same molecule, the TGI (HS 578T breast) was 11.8 µM and the GI50 (CAKI-1 renal) was 7.87 µM.
